Reference: US6790971B1, “19-Nor-steroids” (Aventis Pharma S.A., priority 1989, dated 2004)

How the values were obtained:
[1] = target: T1, Glucocorticoid Receptor of Rat Thymus (Rattus norvegicus, UniProt P06536); assay: Relative affinity of the bond, glucocorticoid receptor (tritiated dexamethasone displacement); assay type: binding; conditions: RAB=100(CH)/(CX); for Relative affinity of the bond (RAB), Glucocoticoid, 4 H: incubation 4 H at 0° C.; for Relative affinity of the bond (RAB), Glucocoticoid, 24 H: incubation 24 H at 0° C.
T1 construct: The thymuses were removed and homogenized at 0° C; from tissue; host or cells: thymus cytosol (105,000 g supernatant) of adrenalectomised male Sprague-Dawley rats
T1 sequence (P06536 1-795): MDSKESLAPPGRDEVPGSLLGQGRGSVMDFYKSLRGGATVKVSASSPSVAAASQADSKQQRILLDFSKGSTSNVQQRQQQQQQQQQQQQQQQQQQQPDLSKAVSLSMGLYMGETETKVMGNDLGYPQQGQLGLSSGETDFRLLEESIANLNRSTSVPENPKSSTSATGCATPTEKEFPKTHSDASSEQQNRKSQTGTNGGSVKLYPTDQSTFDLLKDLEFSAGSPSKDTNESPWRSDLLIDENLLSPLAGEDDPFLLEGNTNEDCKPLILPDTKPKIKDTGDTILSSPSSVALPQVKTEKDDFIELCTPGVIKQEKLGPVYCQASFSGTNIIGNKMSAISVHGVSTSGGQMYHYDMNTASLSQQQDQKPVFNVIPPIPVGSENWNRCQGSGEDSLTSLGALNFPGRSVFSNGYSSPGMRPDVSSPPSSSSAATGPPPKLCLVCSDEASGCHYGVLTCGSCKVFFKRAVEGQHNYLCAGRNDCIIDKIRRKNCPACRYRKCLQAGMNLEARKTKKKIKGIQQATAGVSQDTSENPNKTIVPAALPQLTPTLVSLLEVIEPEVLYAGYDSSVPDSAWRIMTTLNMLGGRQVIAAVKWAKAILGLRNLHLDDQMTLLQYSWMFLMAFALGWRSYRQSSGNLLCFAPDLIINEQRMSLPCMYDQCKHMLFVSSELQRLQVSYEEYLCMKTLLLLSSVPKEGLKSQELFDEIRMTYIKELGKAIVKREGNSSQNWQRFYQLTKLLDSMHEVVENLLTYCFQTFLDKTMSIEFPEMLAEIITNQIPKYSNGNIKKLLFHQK
Experimental: Glucocorticoid Receptor of Rat Thymus:
Male Sprague Dawley EOPS rats weighing 160 to 200 g were subjected to suprarenalectomy and 4 to 8 days after this intervention, the animals were killed. The thymuses were removed and homogenized at 0° C. in a 10 mM Tris, 0.25 M saccharose, 2 mM dithiothreitol, HCL pH 7.4 buffer, with the aid of a Potter polytetrafluoroethylene-glass (1 g of tissue for 10 ml of TS). The homogenate was subsequently ultracentrifuged (105,000 g×90 min) at 0° C. and aliquots of the supernatant were incubated at 0° C. for a time (t) with a constant concentration (T) of tritiated dexamethasone in the presence of increasing concentrations (0-2,500.10^−9 M) either of cold dexamethasone, or of cold product to be tested. The concentration (B) of the bound tritiated dexamethasone was measured in each incubate by the adsorption technique on dextran carbon.
(§1) Calculation of the Relative Affinty of the Bond
(§2) The calculation of the Relative Affinity of the Bond (RAB) was identical for all the receptors. The following 2 curves were traced; the percentage of the bound tritiated hormone [formula]
(§3) was a function of the logarithm of the concentration of the cold reference hormone and [formula]
(§4) as a function of the logarithm of the concentration of the cold product tested.
(§5) One determined the straight line of the equation [formula]
(§6) The intersections of the straight line I50 and of the curves make it possible to evaluate the concentrations of the cold reference hormone (CH) and of the tested cold product (CX) which inhibit to an extend of 50% the binding of the tritiated hormone upon the receptor. The relative affinity of the bond (RAB) of the tested product is determined by the equation

[2] = target: T2, Androgen Receptor of Rat's Prostate (Rattus norvegicus, UniProt P15207); assay: Relative affinity of the bond, androgen receptor (tritiated testosterone displacement); assay type: binding; conditions: for Relative affinity of the bond (RAB), Androgen, 0.5 H: incubation 0.5 H at 0° C.; for Relative affinity of the bond (RAB), Androgen, 0.5 H / Relative affinity of the bond (RAB), Androgen, 25 H: RAB=100(CH)/(CX); for Relative affinity of the bond (RAB), Androgen, 25 H: incubation 25 H at 0° C.
T2 construct: Their prostates were removed, weighed and homogenized at 0° C; from tissue; host or cells: prostate cytosol (105,000 g supernatant) of castrated male Sprague-Dawley rats
T2 sequence (P15207 1-902): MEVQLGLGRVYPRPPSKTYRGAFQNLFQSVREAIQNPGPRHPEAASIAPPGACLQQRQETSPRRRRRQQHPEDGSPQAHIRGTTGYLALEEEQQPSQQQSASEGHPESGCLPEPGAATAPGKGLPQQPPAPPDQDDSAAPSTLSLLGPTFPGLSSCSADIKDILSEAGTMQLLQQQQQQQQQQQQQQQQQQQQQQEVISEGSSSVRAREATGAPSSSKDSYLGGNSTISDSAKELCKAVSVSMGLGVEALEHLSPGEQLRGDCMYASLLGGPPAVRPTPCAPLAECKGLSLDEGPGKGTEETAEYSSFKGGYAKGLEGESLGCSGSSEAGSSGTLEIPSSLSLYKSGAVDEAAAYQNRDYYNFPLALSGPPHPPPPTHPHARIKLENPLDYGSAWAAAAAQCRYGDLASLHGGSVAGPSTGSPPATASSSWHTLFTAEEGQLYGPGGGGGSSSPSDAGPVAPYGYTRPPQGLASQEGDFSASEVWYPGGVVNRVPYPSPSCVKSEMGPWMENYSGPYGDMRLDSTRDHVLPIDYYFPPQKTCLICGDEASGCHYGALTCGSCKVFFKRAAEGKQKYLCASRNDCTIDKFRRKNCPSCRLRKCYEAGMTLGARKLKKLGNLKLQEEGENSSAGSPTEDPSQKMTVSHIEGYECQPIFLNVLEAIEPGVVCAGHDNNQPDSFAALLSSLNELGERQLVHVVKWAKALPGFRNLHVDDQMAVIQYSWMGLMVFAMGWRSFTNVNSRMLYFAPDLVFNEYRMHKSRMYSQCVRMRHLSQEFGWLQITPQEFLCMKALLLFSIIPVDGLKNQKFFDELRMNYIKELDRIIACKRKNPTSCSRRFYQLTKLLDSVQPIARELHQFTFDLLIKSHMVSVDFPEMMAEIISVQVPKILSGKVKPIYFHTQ
Experimental: Androgen Receptor of Rat's Prostate:
Male Sprague Dawley EPOS rats weighing 160 to 200 g were castrated and 24 hours after the castration, the animals were killed. Their prostates were removed, weighed and homogenized at 0° C. using a Potter teflon-glass in a TS buffered solution (Tris 10 mM, saccharose 0.25 M, HCl pH 7.4) (1 g of tissue for 5 ml of TS). The homogenate was ultracentrifuged (105,000 g for 60 minutes) at 0° C. and aliquots of the supernatant were incubated at 0° C. for an incubation time E with a constant concentration (T) of tritiated testosterone in the presence of increasing concentrations (0-1000.10^−9 M) either of cold testosterone or of the product to be tested. The concentration of bound tritiated testosterone (B) was then measured in each incubate by the adsorption on dextran carbon technique.
as §1, §2, §3, §4, §5, §6

Relative affinity of the bond (RAB), Glucocoticoid, 4 H [1] | Relative affinity of the bond (RAB), Glucocoticoid, 24 H [1] | Relative affinity of the bond (RAB), Androgen, 0.5 H [2] | Relative affinity of the bond (RAB), Androgen, 25 H [2] | Compound | affinity for the androgen receptor [2]
12 | 11 | 0 | 0.4 | CC(C)N(C)C(=O)CCCCCCCCCC[C@H]1C[C@]2(C)[C@@H](O)CC[C@H]2[C@@H]2CCc3cc(O)ccc3[C@@H]12 [Example 16, 3,17β-dihydroxy-N-methyl-N-isopropyl-11β-Δ^1,3,5(10)-estratriene undecanamide] | 
7 | 7 | 0 | 0.12 | CCCCN(C)C(=O)CCCCCCCCCC[C@H]1C[C@]2(C)[C@@H](O)CC[C@H]2[C@@H]2CCc3cc(O)ccc3[C@@H]12 [Example 13, N-Butyl-3,17β-Dihydroxy-N-Methyl-11β-Δ^1,3,5(10)-Estratriene-Undecanamide] | 
7 | 14 | 0.0 | 0 | CC#C[C@]1(O)CC[C@H]2[C@@H]3CCC4=CC(=O)CCC4=C3[C@@H](CCCCCCCCCCC(=O)NCCCC)C[C@@]21C [Example 22, N-butyl-17β-hydroxy-3-oxo-17α-(1-propynyl)-11β-Δ^4,9-estradiene undecanamide] | 
2 | 3 | 0 | 0.4 | CCCCN(C)C(=O)CCCCCCCCCCC[C@H]1C[C@]2(C)[C@@H](O)CC[C@H]2[C@@H]2CCc3cc(O)ccc3[C@@H]12 [Example 24, N-butyl-3,17β-dihydroxy-N-methyl-11β-Δ^1,3,5(10)-estratriene dodecanamide] | 

Second part, the compound before the results:

Compound | Relative affinity of the bond (RAB), Glucocoticoid, 4 H [1] | Relative affinity of the bond (RAB), Glucocoticoid, 24 H [1] | Relative affinity of the bond (RAB), Androgen, 0.5 H [2] | Relative affinity of the bond (RAB), Androgen, 25 H [2] | affinity for the androgen receptor [2]
N-butyl-3,17β-dihydroxy-N-methyl-19-nor-11β-Δ^1,3,5(10)-pregnatrien-20-yn undecanamide [Example 21] | 2 | 2.6 | 0 | 0 | 
CN(Cc1ccccc1)C(=O)CCCCCCCCCC[C@H]1C[C@]2(C)[C@@H](O)CC[C@H]2[C@@H]2CCC3=CC(=O)CCC3=C12 [Example 17, N-benzyl-17β-hydroxy-N-methyl-3-oxo-11β-Δ^4,9-estradiene undecanamide] | 3 | 6 | 0.12 | 1.2 | 
CN(C)CCN(C)C(=O)CCCCCCCCCC[C@H]1C[C@]2(C)[C@@H](O)CC[C@H]2[C@@H]2CCC3=CC(=O)CCC3=C12 [Example 19, N-[2-(dimethylamino)-ethyl]-17β-hydroxy-N-methyl-3-oxo-11β-Δ^4,9-estradiene undecanamide] | 6 | 4.6 | 11 | 11 | moderate affinity
